The values below come from PMC10337664 (Journal of Chemical Information and Modeling, 2023).

In this test the target is DCAF1 (DDB1-Cul4 associated factor 1), WDR domain (Homo sapiens, UniProt Q9Y4B6). Nature of the test: […] Å cocrystal structure. The test is classed as binding.

The structures appear in SMILES notation.

Chain of DCAF1 (DDB1-Cul4 associated factor 1), WDR domain (Q9Y4B6 1038-1400): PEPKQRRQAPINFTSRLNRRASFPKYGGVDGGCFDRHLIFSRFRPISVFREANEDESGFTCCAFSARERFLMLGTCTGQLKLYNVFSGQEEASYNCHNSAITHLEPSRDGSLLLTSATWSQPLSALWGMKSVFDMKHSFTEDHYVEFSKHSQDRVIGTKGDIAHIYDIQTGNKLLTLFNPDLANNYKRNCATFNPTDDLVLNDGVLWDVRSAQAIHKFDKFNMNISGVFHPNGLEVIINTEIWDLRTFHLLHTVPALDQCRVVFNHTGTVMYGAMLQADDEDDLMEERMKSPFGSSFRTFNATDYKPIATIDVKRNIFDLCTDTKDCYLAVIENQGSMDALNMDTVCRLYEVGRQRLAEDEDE

For the compound `Fc1cccc(N2CCCC(Nc3cc(N4CCOCC4)ncn3)C2)c1` (stereo not shown) [CYCA-117-70], the Kd (commonly a measure of binding affinity in units of concentration) was around 70 µM.
